In article PMC10507961, “Development of an amoxicillin-radix scutellaria extract formulation and evaluation of its pharmacokinetics in pigs” (BMC Veterinary Research, 2023):
Converted amounts (≈) assume the structure as drawn.

What was measured:
[1] = Second pharmacokinetic study in pigs (three doses of AMO-RSE powder); type: in vivo; conditions: p.o. AMO-RSE powder, tested dose range (AMO 10–30 mg/kg, BCL 5–15 mg/kg)
From the text: Twelve healthy Landrace × Large White hybrid pigs, half male and half female, with an average body weight of 15 ± 3.2 kg (range 11–18 kg), were randomly divided into two groups (three male and three female pigs in each group) for pharmacokinetics experiments and were purchased from JuCong agriculture, Nanning, Guangxi. Commercial feed and water free of antibiotics and target drugs were freely available to the pigs housed individually in 12 pig pens. After the experiment, the pigs were released.
Pig jugular vein blood was collected in an anticoagulant tube, and centrifuged at 3000 rpm for 10 min, and the separated plasma was stored at -20 ℃. The plasma sample was placed at room temperature for natural thawing, and it was mixed evenly with a vortex, 1 mL of the plasma sample was accurately measure and placed it in a 10 mL centrifuge tube with a cover. […]
Using HPLC to measured the content of AMO. […] The limits of detection and quantification of amoxicillin in the plasma were 0.03 and 0.1 µg/ml, respectively.
The content of BCL were measured using HPLC. […] The limits of detection and quantification of […] in the plasma were 0.03 and 0.1 µg/ml, respectively. […]
The concentrations of AMO and BCL in plasma at each time point are expressed as the arithmetic mean ± SD. The pharmacokinetic parameters were calculated by using noncompartmental analysis based on statistical moment theory. […]

Salmonella = experiment: Antibacterial susceptibility test (MIC), Salmonella; type: cell-based; conditions: read-out: AMO MIC
Method: The minimum inhibitory concentration (MIC) of AMO and RSE was tested in the bacteria mentioned above; this method was previously reported by Jiarong Cao, et al..
(§1) Amoxicillin or baicalin was added to a sterile 96-well plate with multiple dilutions from low to high concentrations from the first well to the tenth well, with 100 μL per well. 100 μL of bacterial solution was added to a concentration of 1 × 10^6 CFU/mL. 200 μL of the bacterial solution was added to the 11th well as positive control, and 200 μL of broth was added to the 12th well as a negative control. The MIC test of quality control bacteria was carried out at the same time in each test. The 96-well plate was placed in a 37 ℃ incubator for 18 to 24 h, and the results were observed and recorded. The experiment was repeated three times.

Escherichia coli = experiment: Antibacterial susceptibility test (MIC), E. coli; type: cell-based; conditions: 15 strains, MIC range, read-out: AMO MIC
Method: as §1, with “Fifteen strains of E. coli, 16 strains of […], and 16 strains of […] were provided by the Department of Pharmacology and Toxicology of China Agricultural University. The minimum inhibitory concentration (MIC) of AMO and RSE was tested in the bacteria mentioned above; this method was previously reported by Jiarong Cao, et al.. Amoxicillin” for “Amoxicillin”

Streptococcus = experiment: Antibacterial susceptibility test (MIC), Streptococcus; type: cell-based; conditions: 16 strains, MIC range
Method: as §1, with “Fifteen strains of E. coli, 16 strains of […], and 16 strains of […] were provided by the Department of Pharmacology and Toxicology of China Agricultural University. The minimum inhibitory concentration (MIC) of AMO and RSE was tested in the bacteria mentioned above; this method was previously reported by Jiarong Cao, et al.. Amoxicillin” for “Amoxicillin”

Angle of repose test = type: physicochemical; conditions: fixed funnel method
Method: The fixed funnel method was used to measure the angle of repose. A funnel was fixed at a height of 3 cm above coordinate paper (the paper was placed on a horizontal table), and materials were added through the funnel until the top of the accumulated cone came into contact with the bottom of the funnel. The cone diameter was measured, and the angle of repose was calculated with the ratio of the distance between the funnel and paper to the cone radius as the tangent.

[2] = Moisture absorption percentage test; type: physicochemical
Method: Sample dried to a constant weight (1 g) was placed in a 5 mL flat weighing bottle, shaken gently to evenly distribute the sample, weighed accurately, put it in a dryer containing supersaturated sodium chloride solution (the weighing bottle is opened), and weighed after 24 h (n = 3). The moisture absorption percentage was calculated according to the following formula: Moistureabsorptionpercentage(%)=weightaftermoistureabsorption-weightbeforemoistureabsorption/weightbeforemoistureabsorption×100%

Row | Compound | dose linearity of pharmacokinetics [1] | MIC (Salmonella) [µg/mL] | MIC (Escherichia coli) [µg/mL] | AMO MIC (Streptococcus) [µg/mL] | MIC (Streptococcus; read-out: AMO MIC) [µg/mL] | angle of repose (Angle of repose test) [°] | moisture absorption percentage, rank among five excipients [2]
1 | CC1(C)S[C@@H]2[C@H](NC(=O)[C@H](N)c3ccc(O)cc3)C(=O)N2[C@H]1C(=O)O [AMO, Amoxicillin] | linear pharmacokinetic properties | 0.25 to 32 (≈ 0.684 to 87.6 µM) | 1 to 8 (≈ 2.74 to 21.9 µM) | 1 to 128 | 0.5 to 64 (≈ 1.37 to 175 µM) |  | 
2 | O=C(O)[C@H]1O[C@@H](Oc2cc3oc(-c4ccccc4)cc(=O)c3c(O)c2O)[C@H](O)[C@@H](O)[C@@H]1O [BCL, baicalin] | linear pharmacokinetic properties |  |  |  |  |  | 
3 | OC[C@H]1OC(O)[C@H](O)[C@@H](O)[C@@H]1O (some centres unmarked) [glucose] |  |  |  |  |  | 41.44 | lowest
